Source: ChEMBL document CHEMBL4387741, “Optimization of novel reversible Bruton's tyrosine kinase inhibitors identified using Tethering-fragment-based screens” (Bioorg Med Chem, 2019)

What was measured:
[1] = target: Casein kinase I isoform gamma-2 (Homo sapiens) (UniProt P78368); test: Inhibition of wild-type human full length CSNK1G2 (M1 to K415 residues) expressed in bacterial expression system at 1 uM by Kinomescan method relative to control
[2] = target: Dual specificity mitogen-activated protein kinase kinase 4 (Homo sapiens) (UniProt P45985); test: Inhibition of wild-type human partial length MEK4 (S84 to D399 residues) expressed in mammalian expression system at 1 uM by Kinomescan method relative to control
[3] = target: Serine/threonine-protein kinase VRK2 (Homo sapiens) (UniProt Q86Y07); test: Inhibition of wild-type human partial length VRK2 (M1 to T336 residues) expressed in mammalian expression system at 1 uM by Kinomescan method relative to control
[4] = target: Receptor-interacting serine/threonine-protein kinase 4 (Homo sapiens) (UniProt P57078); test: Inhibition of wild-type human partial length RIPK4 (M1 to V303 residues) expressed in mammalian expression system at 1 uM by Kinomescan method relative to control
[5] = target: Vascular endothelial growth factor receptor 2 (Homo sapiens) (UniProt P35968); test: Inhibition of wild-type human partial length VEGFR2 (R787 to P1253 residues) expressed in mammalian expression system at 1 uM by Kinomescan method relative to control
[6] = target: Serine/threonine-protein kinase D3 (Homo sapiens) (UniProt O94806); test: Inhibition of wild-type human partial length PRKD3 (S543 to E863 residues) expressed in bacterial expression system at 1 uM by Kinomescan method relative to control
[7] = test system: Tyrosine-protein kinase ABL1 (Homo sapiens), P00519 [M351T]; test: Inhibition of human phosphorylated ABL1 M351T mutant (S229 to K512 residues) expressed in mammalian expression system at 1 uM by Kinomescan method relative to control
[8] = target: Ribosomal protein S6 kinase alpha-2 (Homo sapiens) (UniProt Q15349); test: Inhibition of wild-type human partial length C-terminal RSK3 kinase domain 2 (V403 to K700 residues) expressed in bacterial expression system at 1 uM by Kinomescan method relative to control
[9] = target: Serine/threonine-protein kinase PAK 3 (Homo sapiens) (UniProt O75914); test: Inhibition of wild-type human full length PAK3 (M1 to R544 residues) expressed in bacterial expression system at 1 uM by Kinomescan method relative to control
[10] = target: Cyclin-dependent kinase-like 3 (Homo sapiens) (UniProt Q8IVW4); test: Inhibition of wild-type human partial length CDKL3 (M1 to D327 residues) expressed in bacterial expression system at 1 uM by Kinomescan method relative to control
[11] = target: Serine/threonine-protein kinase WNK2 (Homo sapiens) (UniProt Q9Y3S1); test: Inhibition of wild-type human partial length WNK2 (V47 to D482 residues) expressed in mammalian expression system at 1 uM by Kinomescan method relative to control
[12] = target: Cyclin-dependent kinase 5 (Homo sapiens) (UniProt Q00535); test: Inhibition of wild-type human full length CDK5 (M1 to P292 residues) expressed in bacterial expression system at 1 uM by Kinomescan method relative to control
[13] = target: Death-associated protein kinase 3 (Homo sapiens) (UniProt O43293); test: Inhibition of wild-type human partial length DAPK3 (M1 to A277 residues) expressed in bacterial expression system at 1 uM by Kinomescan method relative to control
[14] = target: Mitogen-activated protein kinase 13 (Homo sapiens) (UniProt O15264); test: Inhibition of wild-type human full length p38-delta (M1 to L365 residues) expressed in bacterial expression system at 1 uM by Kinomescan method relative to control
[15] = target: Receptor-interacting serine/threonine-protein kinase 2 (Homo sapiens) (UniProt O43353); test: Inhibition of wild-type human partial length RIPK2 (M1 to K310 residues) expressed in bacterial expression system at 10 uM by Kinomescan method relative to control
[16] = target: Serine/threonine-protein kinase PLK2 (Homo sapiens) (UniProt Q9NYY3); test: Inhibition of wild-type human partial length PLK2 (H58 to F354 residues) expressed in mammalian expression system at 10 uM by Kinomescan method relative to control
[17] = target: Mitogen-activated protein kinase kinase kinase kinase 3 (Homo sapiens) (UniProt Q8IVH8); test: Inhibition of wild-type human partial length MAP4K3 (M1 to D301 residues) expressed in bacterial expression system at 10 uM by Kinomescan method relative to control
[18] = target: Homeodomain-interacting protein kinase 3 (Homo sapiens) (UniProt Q9H422); test: Inhibition of wild-type human partial length HIPK3 (M153 to N562 residues) expressed in mammalian expression system at 10 uM by Kinomescan method relative to control
[19] = test system: Tyrosine-protein kinase ABL1 (Homo sapiens), P00519 [F317L]; test: Inhibition of human non-phosphorylated ABL1 F317L mutant (S229 to K512 residues) expressed in mammalian expression system at 10 uM by Kinomescan method relative to control
[20] = target: Serine/threonine-protein kinase ICK (Homo sapiens) (UniProt Q9UPZ9); test: Inhibition of wild-type human partial length ICK (M1 to P314 residues) expressed in mammalian expression system at 10 uM by Kinomescan method relative to control
[21] = target: Mitogen-activated protein kinase 7 (Homo sapiens) (UniProt Q13164); test: Inhibition of wild-type human partial length ERK5 (M1 to A409 residues) expressed in bacterial expression system at 10 uM by Kinomescan method relative to control
[22] = target: RAC-beta serine/threonine-protein kinase (Homo sapiens) (UniProt P31751); test: Inhibition of wild-type human partial length AKT2 expressed in bacterial expression system at 10 uM by Kinomescan method relative to control
[23] = target: MAP/microtubule affinity-regulating kinase 4 (Homo sapiens) (UniProt Q96L34); test: Inhibition of wild-type human partial length MARK4 (K29 to G340 residues) expressed in bacterial expression system at 10 uM by Kinomescan method relative to control
[24] = target: G protein-coupled receptor kinase 4 (Homo sapiens) (UniProt P32298); test: Inhibition of wild-type human full length GRK4 (M1 to C578 residues) expressed in bacterial expression system at 10 uM by Kinomescan method relative to control
[25] = target: Serine/threonine-protein kinase 3 (Homo sapiens) (UniProt Q13188); test: Inhibition of wild-type human partial length MST2 (D17 to E318 residues) expressed in bacterial expression system at 10 uM by Kinomescan method relative to control
[26] = test system: Receptor-type tyrosine-protein kinase FLT3 (Homo sapiens), P36888 [R834Q]; test: Inhibition of human partial length FLT3 R834Q mutant (V592 to Y969 residues) expressed in mammalian expression system at 10 uM by Kinomescan method relative to control
[27] = target: SNF-related serine/threonine-protein kinase (Homo sapiens) (UniProt Q9NRH2); test: Inhibition of wild-type human partial length SNRK (M1 to E339 residues) expressed in mammalian expression system at 10 uM by Kinomescan method relative to control

Sequence of Death-associated protein kinase 3 (Homo sapiens) (O43293 whole entry, looked up, the tested form may be a part): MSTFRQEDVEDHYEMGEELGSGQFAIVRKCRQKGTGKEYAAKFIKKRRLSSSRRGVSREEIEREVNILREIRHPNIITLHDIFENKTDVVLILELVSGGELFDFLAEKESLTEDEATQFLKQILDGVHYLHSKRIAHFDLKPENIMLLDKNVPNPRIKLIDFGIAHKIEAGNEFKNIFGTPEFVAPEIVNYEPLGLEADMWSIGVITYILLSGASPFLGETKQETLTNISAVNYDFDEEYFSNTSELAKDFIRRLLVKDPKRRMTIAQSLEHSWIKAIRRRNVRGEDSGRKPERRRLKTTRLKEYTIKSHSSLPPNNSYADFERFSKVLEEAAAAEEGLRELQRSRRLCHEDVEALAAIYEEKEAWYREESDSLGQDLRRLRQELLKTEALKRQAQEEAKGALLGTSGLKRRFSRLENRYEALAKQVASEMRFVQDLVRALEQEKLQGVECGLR
Sequence of Serine/threonine-protein kinase WNK2 (Homo sapiens) (Q9Y3S1 whole entry, the tested form may be a part): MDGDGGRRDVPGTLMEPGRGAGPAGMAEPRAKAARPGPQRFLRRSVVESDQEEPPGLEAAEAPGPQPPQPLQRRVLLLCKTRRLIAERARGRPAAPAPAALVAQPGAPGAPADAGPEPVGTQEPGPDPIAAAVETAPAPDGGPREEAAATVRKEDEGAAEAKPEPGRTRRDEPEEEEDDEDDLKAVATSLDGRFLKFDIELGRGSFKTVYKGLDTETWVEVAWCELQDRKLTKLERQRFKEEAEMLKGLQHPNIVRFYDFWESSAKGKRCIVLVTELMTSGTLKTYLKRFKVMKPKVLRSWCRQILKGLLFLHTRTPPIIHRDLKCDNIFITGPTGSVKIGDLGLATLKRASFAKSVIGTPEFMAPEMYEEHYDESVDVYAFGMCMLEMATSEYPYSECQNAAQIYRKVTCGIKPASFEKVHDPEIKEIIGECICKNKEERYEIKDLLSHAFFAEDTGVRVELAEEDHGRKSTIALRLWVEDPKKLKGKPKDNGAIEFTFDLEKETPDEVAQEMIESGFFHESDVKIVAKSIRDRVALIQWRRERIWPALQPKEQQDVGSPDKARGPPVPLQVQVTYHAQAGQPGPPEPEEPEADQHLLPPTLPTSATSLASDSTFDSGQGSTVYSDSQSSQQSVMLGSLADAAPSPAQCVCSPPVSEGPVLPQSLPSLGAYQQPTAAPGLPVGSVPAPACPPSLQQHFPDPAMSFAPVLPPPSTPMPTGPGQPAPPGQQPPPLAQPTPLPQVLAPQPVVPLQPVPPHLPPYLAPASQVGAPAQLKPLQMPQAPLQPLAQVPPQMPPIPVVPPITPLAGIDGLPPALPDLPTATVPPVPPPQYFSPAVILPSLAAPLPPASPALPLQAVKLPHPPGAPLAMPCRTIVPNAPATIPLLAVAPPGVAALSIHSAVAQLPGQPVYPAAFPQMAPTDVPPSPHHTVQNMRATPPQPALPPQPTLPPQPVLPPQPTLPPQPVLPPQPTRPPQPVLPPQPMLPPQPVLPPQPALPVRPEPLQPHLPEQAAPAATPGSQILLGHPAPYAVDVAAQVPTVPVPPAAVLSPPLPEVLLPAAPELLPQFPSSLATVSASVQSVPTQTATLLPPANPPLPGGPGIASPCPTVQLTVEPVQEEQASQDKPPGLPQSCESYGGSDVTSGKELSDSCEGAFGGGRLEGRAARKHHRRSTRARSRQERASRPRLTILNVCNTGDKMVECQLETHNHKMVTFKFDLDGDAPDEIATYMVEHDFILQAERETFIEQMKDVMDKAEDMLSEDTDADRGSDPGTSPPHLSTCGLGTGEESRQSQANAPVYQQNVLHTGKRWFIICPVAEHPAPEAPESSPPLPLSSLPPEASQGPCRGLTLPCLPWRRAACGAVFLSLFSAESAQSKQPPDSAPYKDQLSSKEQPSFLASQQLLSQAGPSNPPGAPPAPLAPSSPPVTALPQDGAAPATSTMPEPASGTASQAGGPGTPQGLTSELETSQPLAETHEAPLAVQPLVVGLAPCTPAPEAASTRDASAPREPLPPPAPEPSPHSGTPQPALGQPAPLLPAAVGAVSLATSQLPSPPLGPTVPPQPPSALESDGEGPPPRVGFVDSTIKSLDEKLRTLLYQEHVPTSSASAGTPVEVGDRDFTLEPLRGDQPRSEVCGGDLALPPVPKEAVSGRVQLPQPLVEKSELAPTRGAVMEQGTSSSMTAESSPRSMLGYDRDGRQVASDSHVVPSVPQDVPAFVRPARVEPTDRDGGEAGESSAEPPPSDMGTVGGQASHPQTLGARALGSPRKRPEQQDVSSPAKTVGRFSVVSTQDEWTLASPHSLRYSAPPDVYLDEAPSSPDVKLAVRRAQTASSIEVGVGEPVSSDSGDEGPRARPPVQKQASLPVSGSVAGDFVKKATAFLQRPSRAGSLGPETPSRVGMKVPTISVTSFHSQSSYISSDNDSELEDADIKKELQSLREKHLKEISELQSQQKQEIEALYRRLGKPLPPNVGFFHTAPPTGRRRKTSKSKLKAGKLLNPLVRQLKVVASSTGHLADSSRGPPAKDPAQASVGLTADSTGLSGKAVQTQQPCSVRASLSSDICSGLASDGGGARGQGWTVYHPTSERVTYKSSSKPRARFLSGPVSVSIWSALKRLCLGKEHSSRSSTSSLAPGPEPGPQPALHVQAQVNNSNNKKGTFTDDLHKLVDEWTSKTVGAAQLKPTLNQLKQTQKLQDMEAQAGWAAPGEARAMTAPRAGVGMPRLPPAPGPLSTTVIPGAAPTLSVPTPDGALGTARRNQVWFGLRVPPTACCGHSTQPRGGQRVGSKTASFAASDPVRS
Sequence of Vascular endothelial growth factor receptor 2 (Homo sapiens) (P35968 whole entry, the tested form may be a part): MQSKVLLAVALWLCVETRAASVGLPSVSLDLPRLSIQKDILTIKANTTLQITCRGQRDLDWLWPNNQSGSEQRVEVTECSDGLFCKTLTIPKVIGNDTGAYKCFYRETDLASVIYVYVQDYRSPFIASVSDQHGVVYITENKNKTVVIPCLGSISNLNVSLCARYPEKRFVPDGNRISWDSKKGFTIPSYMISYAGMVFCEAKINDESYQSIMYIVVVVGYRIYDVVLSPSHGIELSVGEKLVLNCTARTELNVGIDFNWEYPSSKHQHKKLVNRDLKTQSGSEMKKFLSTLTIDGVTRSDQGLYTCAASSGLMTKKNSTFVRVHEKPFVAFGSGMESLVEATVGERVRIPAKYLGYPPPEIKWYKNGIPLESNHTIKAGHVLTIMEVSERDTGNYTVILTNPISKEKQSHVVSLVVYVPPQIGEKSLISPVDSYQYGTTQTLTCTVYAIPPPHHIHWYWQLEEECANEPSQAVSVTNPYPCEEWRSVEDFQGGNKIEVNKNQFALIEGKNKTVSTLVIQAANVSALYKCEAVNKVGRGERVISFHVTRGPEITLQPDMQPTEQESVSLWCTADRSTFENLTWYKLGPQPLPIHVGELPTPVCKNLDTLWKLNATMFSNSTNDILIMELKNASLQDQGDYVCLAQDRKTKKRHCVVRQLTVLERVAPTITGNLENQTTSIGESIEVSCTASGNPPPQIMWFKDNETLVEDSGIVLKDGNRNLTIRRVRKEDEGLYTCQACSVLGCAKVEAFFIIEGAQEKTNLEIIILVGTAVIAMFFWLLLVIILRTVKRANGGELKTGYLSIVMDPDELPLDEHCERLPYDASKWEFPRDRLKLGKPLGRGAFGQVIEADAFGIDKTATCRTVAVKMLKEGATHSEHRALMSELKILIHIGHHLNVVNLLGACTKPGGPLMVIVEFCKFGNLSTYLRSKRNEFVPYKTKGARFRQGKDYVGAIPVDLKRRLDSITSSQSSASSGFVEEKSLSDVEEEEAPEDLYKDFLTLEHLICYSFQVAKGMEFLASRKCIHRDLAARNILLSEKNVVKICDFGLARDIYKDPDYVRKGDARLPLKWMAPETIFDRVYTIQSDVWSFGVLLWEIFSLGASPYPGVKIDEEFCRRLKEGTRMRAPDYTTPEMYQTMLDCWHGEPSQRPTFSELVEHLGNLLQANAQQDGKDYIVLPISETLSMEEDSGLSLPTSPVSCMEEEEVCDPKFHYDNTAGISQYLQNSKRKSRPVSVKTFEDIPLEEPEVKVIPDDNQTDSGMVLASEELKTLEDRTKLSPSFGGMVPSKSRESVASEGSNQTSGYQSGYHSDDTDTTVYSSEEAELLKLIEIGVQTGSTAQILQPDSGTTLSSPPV
Sequence of Serine/threonine-protein kinase ICK (Homo sapiens) (Q9UPZ9 whole entry, the tested form may be a part): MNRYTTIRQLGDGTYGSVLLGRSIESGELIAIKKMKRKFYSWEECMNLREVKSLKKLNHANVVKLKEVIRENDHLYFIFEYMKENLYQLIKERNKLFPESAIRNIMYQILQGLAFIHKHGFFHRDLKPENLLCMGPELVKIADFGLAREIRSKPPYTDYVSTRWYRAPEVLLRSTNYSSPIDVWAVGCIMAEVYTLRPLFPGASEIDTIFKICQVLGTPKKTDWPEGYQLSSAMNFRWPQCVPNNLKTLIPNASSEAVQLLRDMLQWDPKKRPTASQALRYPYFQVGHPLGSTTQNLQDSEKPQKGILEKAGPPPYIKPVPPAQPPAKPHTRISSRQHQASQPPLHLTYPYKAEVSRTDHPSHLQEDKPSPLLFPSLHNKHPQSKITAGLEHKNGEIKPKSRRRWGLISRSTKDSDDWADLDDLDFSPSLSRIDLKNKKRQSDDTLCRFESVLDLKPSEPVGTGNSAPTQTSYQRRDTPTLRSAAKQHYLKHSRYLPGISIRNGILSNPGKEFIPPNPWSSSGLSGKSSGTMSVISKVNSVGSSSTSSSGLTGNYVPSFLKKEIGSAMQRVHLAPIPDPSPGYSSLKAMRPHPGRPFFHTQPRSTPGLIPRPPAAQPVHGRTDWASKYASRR
Sequence of Cyclin-dependent kinase 5 (Homo sapiens) (Q00535 whole entry, looked up, the tested form may be a part): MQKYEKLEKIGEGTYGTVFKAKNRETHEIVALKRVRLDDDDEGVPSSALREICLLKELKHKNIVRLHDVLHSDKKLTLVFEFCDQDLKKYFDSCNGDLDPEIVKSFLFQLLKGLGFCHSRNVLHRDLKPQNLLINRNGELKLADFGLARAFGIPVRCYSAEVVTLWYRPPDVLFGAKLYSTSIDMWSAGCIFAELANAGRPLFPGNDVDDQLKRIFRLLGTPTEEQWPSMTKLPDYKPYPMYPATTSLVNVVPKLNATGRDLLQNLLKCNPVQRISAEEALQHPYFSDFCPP

O=C(Nc1cccc([C@@H]2CN(c3ncnc4[nH]ccc34)CCN2CCO)c1)Nc1c(F)cccc1N1CCCC1
inhibition [1]: 100%
inhibition [2]: 7.2%
inhibition [3]: 100%
inhibition [4]: 80%
inhibition [5]: 30%
inhibition [6]: 86%
inhibition [7]: 90%
inhibition [8]: 97%
inhibition [9]: 72%
inhibition [10]: 100%
inhibition [11]: 99%
inhibition [12]: 68%
inhibition [13]: 5.2%
inhibition [14]: 100%

O=C(Nc1cccc([C@H]2CCCN(c3ncnc4[nH]ccc34)C2)c1)Nc1ccccc1N1CCCC1
inhibition [15]: 100%
inhibition [16]: 78%
inhibition [17]: 47%
inhibition [18]: 47%
inhibition [19]: 89%
inhibition [20]: 100%
inhibition [21]: 100%
inhibition [22]: 100%
inhibition [23]: 87%
inhibition [24]: 7.4%
inhibition [25]: 54%
inhibition [26]: 44%
inhibition [27]: 86%
